Consider 13 molecules from PubChem BioAssay AID212 (DTP/NCI, 2004).

This assay has as its system BDF1 mice, colon carcinoma 38 sc, T/C %. Put plainly: NCI In Vivo Anticancer Drug Screen. Data for tumor model Colon Carcinoma 38 (subcutaneous) in B6D2F1 (BDF1) mice. On the procedure: The antitumor activity of compounds was measured in mice bearing transplantable tumors. Survival or tumor size were measured and the results are expressed as the measurement made in the treated group (T) divided by the measurement made in the vehicle treated control group (C). The tumor model used in this assay is Colon Carcinoma 38 (subcutaneous) in B6D2F1 (BDF1) mice

Setting [1] is: endpoint: median tumor weight (est.), dose: 200.0 mg/kg/injection, schedule: Q07DX002 (ip), vehicle: saline, higher = larger tumour.
Setting [2] is: endpoint: median tumor weight (est.), dose: 400.0 mg/kg/injection, schedule: Q07DX002 (ip), vehicle: saline, higher = larger tumour.
Setting [3] is: endpoint: median tumor weight (est.), dose: 6.25 mg/kg/injection, schedule: Q07DX002 (ip), vehicle: saline with Tween-80, higher = larger tumour.
The mark [4] stands for this setting: endpoint: median tumor weight (est.), dose: 12.5 mg/kg/injection, schedule: Q07DX002 (ip), vehicle: saline with Tween-80, higher = larger tumour.
Where [5] appears, read: endpoint: median tumor weight (est.), dose: 100.0 mg/kg/injection, schedule: Q07DX002 (ip), vehicle: saline with Tween-80, higher = larger tumour.
Where [6] appears, read: endpoint: median tumor weight (est.), dose: 100.0 mg/kg/injection, schedule: Q07DX002 (ip), vehicle: saline, higher = larger tumour.
Where [7] appears, read: endpoint: median tumor weight (est.), dose: 50.0 mg/kg/injection, schedule: Q07DX002 (ip), vehicle: saline with Tween-80, higher = larger tumour.
Setting [8] is: endpoint: median tumor weight (est.), dose: 25.0 mg/kg/injection, schedule: Q07DX002 (ip), vehicle: saline with Tween-80, higher = larger tumour.

Structures are written as SMILES. Where “and” joins values, the source holds several entries; their conditions need not be identical. Equal values may be shown once. Records with an inconclusive call do not appear.

For `Cc1cn(C2CC(F)C(CO)O2)c(=O)[nH]c1=O` (centres undefined), the T/C is 204 % of control (endpoint: median tumor weight (est.), dose: 50.0 mg/kg/injection, schedule: Q01DX001 (ip), vehicle: Klucel (hydroxypropylcellulose) (HPC), higher = larger tumour); 193 % of control (endpoint: median tumor weight (est.), dose: 100.0 mg/kg/injection, schedule: Q01DX001 (ip), vehicle: Klucel (hydroxypropylcellulose) (HPC), higher = larger tumour); 182 % of control (endpoint: median tumor weight (est.), dose: 200.0 mg/kg/injection, schedule: Q01DX001 (ip), vehicle: Klucel (hydroxypropylcellulose) (HPC), higher = larger tumour); 119 % of control under setting [1]; 165 % of control (endpoint: median tumor weight (est.), dose: 400.0 mg/kg/injection, schedule: Q01DX001 (ip), vehicle: Klucel (hydroxypropylcellulose) (HPC), higher = larger tumour); 103 % of control under setting [2]. The T/C runs as follows: (endpoint: median tumor weight (est.), dose: 800.0 mg/kg/injection, schedule: Q07DX002 (ip), vehicle: saline, higher = larger tumour) 117 % of control; (endpoint: median tumor weight (est.), dose: 1600.0 mg/kg/injection, schedule: Q07DX002 (ip), vehicle: saline, higher = larger tumour) 100 % of control.

With `c1cnc2ncncc2n1`, the T/C under setting [3] was 88 % of control; the T/C under setting [4] is 83 % of control and 95 % of control; the T/C under setting [5] was 80 % of control and 89 % of control; the T/C under setting [6] is 124 % of control; the T/C (endpoint: median tumor weight (est.), dose: 200.0 mg/kg/injection, schedule: Q07DX002 (ip), vehicle: saline with Tween-80, higher = larger tumour) is 73 % of control and 88 % of control; the T/C under setting [1] was 181 % of control.

Consider `CCN(CC)CCOC(=O)Cc1cccc2c(=O)cc(-c3ccccc3)oc12`, for which the T/C is 110 % of control (endpoint: median survival time, dose: 133.0 mg/kg/injection, schedule: Q07DX002 (ip), vehicle: saline, higher = longer survival); 313 % of control (endpoint: median survival time, dose: 200.0 mg/kg/injection, schedule: Q07DX002 (ip), vehicle: saline, higher = longer survival); 92 % of control (endpoint: median tumor weight (est.), dose: 3.12 mg/kg/injection, schedule: Q07DX002 (iv), vehicle: saline, higher = larger tumour); 74 % of control (endpoint: median tumor weight (est.), dose: 6.25 mg/kg/injection, schedule: Q07DX002 (ip), vehicle: saline, higher = larger tumour); 88 % of control (endpoint: median tumor weight (est.), dose: 6.25 mg/kg/injection, schedule: Q07DX002 (iv), vehicle: saline, higher = larger tumour); 109 % of control (endpoint: median tumor weight (est.), dose: 12.5 mg/kg/injection, schedule: Q07DX002 (iv), vehicle: saline, higher = larger tumour). Besides, the T/C reads like this: (endpoint: median tumor weight (est.), dose: 25.0 mg/kg/injection, schedule: Q07DX002 (iv), vehicle: saline, higher = larger tumour) 46 % of control; (endpoint: median tumor weight (est.), dose: 28.0 mg/kg/injection, schedule: Q07DX002 (iv), vehicle: saline, higher = larger tumour) 122 % of control; (endpoint: median tumor weight (est.), dose: 37.5 mg/kg/injection, schedule: Q07DX002 (iv), vehicle: saline, higher = larger tumour) 110 % of control; (endpoint: median tumor weight (est.), dose: 50.0 mg/kg/injection, schedule: Q07DX002 (ip), vehicle: Klucel (hydroxypropylcellulose) (HPC), higher = larger tumour) 61 % of control; under setting [7], 45 % of control; (endpoint: median tumor weight (est.), dose: 50.0 mg/kg/injection, schedule: Q07DX009 (ip), vehicle: saline, higher = larger tumour) 84 % of control. In addition, the T/C is, setting by setting: under setting [5], 61 % of control; (endpoint: median tumor weight (est.), dose: 100.0 mg/kg/injection, schedule: Q07DX009 (ip), vehicle: saline, higher = larger tumour) 40 % of control; (endpoint: median tumor weight (est.), dose: 112.0 mg/kg/injection, schedule: Q07DX002 (ip), vehicle: saline, higher = larger tumour) 105 % of control; (endpoint: median tumor weight (est.), dose: 150.0 mg/kg/injection, schedule: Q07DX002 (ip), vehicle: saline, higher = larger tumour) 89 % of control.

Regarding `COc1cccc2c1C(=O)c1c(O)c3c(c(O)c1C2=O)CC(O)(/C(C)=N/NC(=O)CCC(=O)N/N=C(\C)C1(O)Cc2c(O)c4c(c(O)c2C(OC2CC(N)C(O)C(C)O2)C1)C(=O)c1c(OC)cccc1C4=O)CC3OC1CC(N)C(O)C(C)O1` (centres undefined), the T/C reads like this: (endpoint: median survival time, dose: 28.0 mg/kg/injection, schedule: Q07DX003 (sc), vehicle: water, higher = longer survival) 107 % of control; (endpoint: median survival time, dose: 73.0 mg/kg/injection, schedule: Q07DX003 (sc), vehicle: water, higher = longer survival) 100 % of control; (endpoint: median survival time, dose: 118.0 mg/kg/injection, schedule: Q07DX003 (sc), vehicle: water, higher = longer survival) 175 % of control; (endpoint: median tumor weight (est.), dose: 4.0 mg/kg/injection, schedule: Q07DX002 (ip), vehicle: distilled water + Tween-80, higher = larger tumour) 97 % of control; (endpoint: median tumor weight (est.), dose: 8.0 mg/kg/injection, schedule: Q07DX002 (ip), vehicle: distilled water + Tween-80, higher = larger tumour) 90 % of control; (endpoint: median tumor weight (est.), dose: 8.0 mg/kg/injection, schedule: Q07DX002 (ip), vehicle: water, higher = larger tumour) 104 % of control. Besides, the T/C by setting is: (endpoint: median tumor weight (est.), dose: 9.48 mg/kg/injection, schedule: Q07DX002 (ip), vehicle: water, higher = larger tumour) 9 % of control; (endpoint: median tumor weight (est.), dose: 14.2 mg/kg/injection, schedule: Q07DX002 (ip), vehicle: water, higher = larger tumour) 2 % of control; (endpoint: median tumor weight (est.), dose: 16.0 mg/kg/injection, schedule: Q07DX002 (ip), vehicle: distilled water + Tween-80, higher = larger tumour) 69 % of control; (endpoint: median tumor weight (est.), dose: 16.0 mg/kg/injection, schedule: Q07DX002 (ip), vehicle: water, higher = larger tumour) 90 % of control; (endpoint: median tumor weight (est.), dose: 32.0 mg/kg/injection, schedule: Q07DX002 (ip), vehicle: distilled water + Tween-80, higher = larger tumour) 59 % of control; (endpoint: median tumor weight (est.), dose: 32.0 mg/kg/injection, schedule: Q07DX002 (ip), vehicle: water, higher = larger tumour) 54 % of control. For the setting “endpoint: median tumor weight (est.), dose: 64.0 mg/kg/injection, schedule: Q07DX002 (ip), vehicle: distilled water + Tween-80, higher = larger tumour”, the T/C is 4 % of control.

As for `CN=C(N)N/N=C(\C)c1ccc2c(c1)Cc1ccccc1-2`, the T/C is, setting by setting: under setting [4], 95 % of control and 98 % of control; under setting [8], 63 % of control and 85 % of control; under setting [7], 83 % of control and 86 % of control; under setting [5], 81 % of control and 93 % of control.

On to `CCN(CC)CCNC(=O)Cc1cccc2c(=O)cc(-c3ccccc3)oc12`, for which the T/C is 101 % of control (endpoint: median tumor weight (est.), dose: 100.0 mg/kg/injection, schedule: Q07DX002 (ip), vehicle: Klucel (hydroxypropylcellulose) (HPC), higher = larger tumour); 96 % of control (endpoint: median tumor weight (est.), dose: 200.0 mg/kg/injection, schedule: Q07DX002 (ip), vehicle: Klucel (hydroxypropylcellulose) (HPC), higher = larger tumour); 68 % of control (endpoint: median tumor weight (est.), dose: 400.0 mg/kg/injection, schedule: Q07DX002 (ip), vehicle: Klucel (hydroxypropylcellulose) (HPC), higher = larger tumour).

Take `O=c1cc(CCl)[nH]nc1CCl`: the T/C is 119 % of control (endpoint: median tumor weight (est.), dose: 3.12 mg/kg/injection, schedule: Q07DX002 (ip), vehicle: saline with Tween-80, higher = larger tumour); 91 % of control under setting [3]; 93 % of control under setting [4].

On to `CCC(C)(OC(C)=O)C(=O)OC1C(=O)OC2CC3C(C)=CC(O)C(O)C3(C)C3C4(O)OCC23C1C(C)C4O` (centres undefined), for which the T/C is, setting by setting: (endpoint: median tumor weight (est.), dose: 0.12 mg/kg/injection, schedule: Q07DX002 (ip), vehicle: saline + alcohol, higher = larger tumour) 80 % of control; (endpoint: median tumor weight (est.), dose: 0.25 mg/kg/injection, schedule: Q07DX002 (ip), vehicle: saline + alcohol, higher = larger tumour) 48 % of control; (endpoint: median tumor weight (est.), dose: 0.5 mg/kg/injection, schedule: Q07DX002 (ip), vehicle: saline + alcohol, higher = larger tumour) 79 % of control; (endpoint: median tumor weight (est.), dose: 1.0 mg/kg/injection, schedule: Q07DX002 (ip), vehicle: saline + alcohol, higher = larger tumour) 43 % of control; (endpoint: median tumor weight (est.), dose: 2.0 mg/kg/injection, schedule: Q07DX002 (ip), vehicle: saline + alcohol, higher = larger tumour) 75 % of control; (endpoint: median tumor weight (est.), dose: 4.0 mg/kg/injection, schedule: Q07DX002 (ip), vehicle: saline + alcohol, higher = larger tumour) 105 % of control.

For `CSc1cc(=O)n2c3ccccc3c3ccnc1c32`, the T/C reads like this: (endpoint: median tumor weight (est.), dose: 1.25 mg/kg/injection, schedule: Q07DX002 (ip), vehicle: saline with Tween-80, higher = larger tumour) 60 % of control; (endpoint: median tumor weight (est.), dose: 2.5 mg/kg/injection, schedule: Q07DX002 (ip), vehicle: saline with Tween-80, higher = larger tumour) 57 % of control and 77 % of control.

On to `Nc1nc2c(C(=O)N3CCCC3)nnn2c2ccccc12`, for which the T/C runs as follows: under setting [4], 98 % of control; under setting [8], 105 % of control; under setting [7], 100 % of control; under setting [5], 116 % of control.

As to `CCSC(=O)N1c2ccc(OC)cc2C=CC1C#N` (centres undefined), the T/C under setting [4] was 70 % of control; the T/C under setting [8] was 81 % of control; the T/C under setting [5] is 107 % of control; the T/C (endpoint: median tumor weight (est.), dose: 175.0 mg/kg/injection, schedule: Q07DX002 (ip), vehicle: saline with Tween-80, higher = larger tumour) was 97 % of control; the T/C (endpoint: median tumor weight (est.), dose: 350.0 mg/kg/injection, schedule: Q07DX002 (ip), vehicle: saline with Tween-80, higher = larger tumour) was 115 % of control and 100 % of control; the T/C (endpoint: median tumor weight (est.), dose: 400.0 mg/kg/injection, schedule: Q07DX002 (ip), vehicle: saline with Tween-80, higher = larger tumour) was 61 % of control. Under “endpoint: median tumor weight (est.), dose: 1400.0 mg/kg/injection, schedule: Q07DX002 (ip), vehicle: saline with Tween-80, higher = larger tumour”, the T/C was 75 % of control and 89 % of control.

With `C=CCOCC1CO1` (centres undefined), the T/C by setting is: (endpoint: median tumor weight (est.), dose: 12.5 mg/kg/injection, schedule: Q07DX002 (ip), vehicle: saline, higher = larger tumour) 66 % of control; under setting [6], 85 % of control; under setting [1], 122 % of control.

With `CONc1ccn(C2OC(CO)C(O)C2O)c(=O)n1` (centres undefined), the T/C (endpoint: median tumor weight (est.), dose: 50.0 mg/kg/injection, schedule: Q07DX002 (ip), vehicle: saline, higher = larger tumour) was 92 % of control and 101 % of control; the T/C under setting [6] was 113 % of control; the T/C under setting [1] was 124 % of control; the T/C under setting [2] is 91 % of control.
